Assay results taken from patent publication US8187825B2, “Thiol detection method” (Riken, priority 2008, dated 2012).

Experiments:
[1] = Reactivity of probe with thiol (fluorescence intensity at 522 nm); details: 1 μM probe, 37° C., 30 minutes, 50 mM Tris-HCl pH 7.4
Method: The reactivity of the probe (compound 2) with several types of thiols was examined by measuring an increase in the fluorescence intensity at 522 nm. The reaction was carried out using the 1 μM probe and 1 mM thiol at 37° C. for 30 minutes in 50 mM Tris-HCl (pH 7.4).
In addition, as a comparative example, a compound represented by the following formula (3) was used as a probe, and its reactivity was examined in the same above manner:
After addition of thiol, the solution was incubated at 37° C. for 30 minutes. The fluorescence at 522 nm was monitored by excitation at 490 nm. “3′-thio dT” indicates 3′-phosphorothioate-2′-deoxythymidine; “DTT” indicates dithiothreitol; “GSH” indicates glutathione; “L-Gly” indicates L-glycine; and “Vc” indicates ascorbic acid.

[2] = cited from earlier work
[3] = Fluorescence measurement of probe with cysteine; details: 100 nM probe
Method: The reaction was carried out using the 100 nM probe (compound 2) and 10 mM cysteine at 37° C. for 30 minutes in 50 mM Tris-HCl (pH 7.4). A fluorescence spectrum was obtained with a fluorescence spectrometer (FP-6500; JASCO). Fluorescence was obtained by excitation at 490 nm at a scanning range of 450 to 650 nm.
Fluorescence was monitored by excitation at 490 nm.

[4] = Stability of probe on heating in Tris buffer; assay type: physicochemical; details: 55° C. for 24 hours in 50 mM Tris buffer (pH 7.4)
HeLa cells = experiment: Fluorescence microscope observation of living HeLa cells; assay type: cell-based
Method: HeLa cells were allowed to grow at 37° C. in a 5% CO2 atmosphere in MEM in order to use them for a test with living cells. The cells were incubated at 37° C. for 15 minutes in the presence of the 25 μM probe (compound 2) (1:100 DMSO/PBS(−), v/v). As a control experiment, the cells were treated with 1 mM N-methylmaleimide in PBS(−) at 37° C. for 60 minutes, and the resultant cells were then washed with a PBS(−) buffer three times. Thereafter, the cells were incubated at 37° C. for 15 minutes in the presence of the 25 μM probe (1:100 DMSO/PBS(−), v/v).
The fluorescence image was obtained using a digital camera (Cool Snap HQ; Roper Scientific) and imaging software (MetaMorph; Molecular Devices), under a fluorescence microscope equipped with a mercury lamp (Axiovert 200M; Carl Zeiss). The conditions of the microscope were determined as follows. Excitation: 470/40 bandpass filter; light emission: 525/50 bandpass filter; and irradiation time: 300 msec.
(a, b): a control image of the cells, which were pre-treated with N-methylmaleimide (1 mM) at 37° C. for 60 minutes and were then incubated together with the probe (25 μM) at 37° C. for 15 minutes; (c, d): an image of the cells, which were incubated together with the probe (25 μM) at 37° C. for 15 minutes; (a, c) a bright-field image; (b, d) a fluorescent image. The conditions of the microscope were determined as follows. Excitation: 470/40 bandpass filter; light emission: 525/50 bandpass filter; and irradiation time: 300 msec.

[5] = Fluorescence measurement in solution with GSH; details: 100 nM probe
Method: The 100 nM probe (compound 4) was allowed to react with 10 mM GSH in 50 mM Tris-HCl (pH 7.4) at 37° C. for 30 minutes. Thereafter, the fluorescence intensity was measured using a fluorescence spectrometer (FP-6500; JASCO) (excitation wavelength: 540 nm).

HL60 = experiment: Flow cytometry of HL60 cells; assay type: cell-based; details: 100 μM probe, 37° C., 15 minutes; control pre-treated with 1 mM N-methylmaleimide 30 minutes
Method: The 100 μM probe (compound 4) was added to HL60, and the mixture was then reacted at 37° C. for 15 minutes. Thereafter, a measurement was then carried out by flow cytometry. 1 mM N-methylmaleimide (N-MMI) used as a thiol-blocking agent was added to HL60, and the obtained mixture was then reacted at 37° C. for 30 minutes. Thereafter, the 100 μM probe was added to the reaction product, and the obtained mixture was reacted at 37° C. for 15 minutes. Thereafter, the measurement was carried out by flow cytometry.

O=C1OC2(c3ccc(NS(=O)(=O)c4ccc([N+](=O)[O-])cc4)cc3Oc3cc(NS(=O)(=O)c4ccc([N+](=O)[O-])cc4)ccc32)c2ccccc21 [formula (3), reference compound]
increase in fluorescence intensity at 522 nm ([1]; 1 mM phosphorothioate (3′-thio dT)): approximately 950 times
reaction with other thiol groups ([1]; 1 mM thiols other than phosphorothioate): did not react with other thiol groups

OCCS [2-mercaptoethanol]
pKa value [2]: 9.5

O=C1OC2(c3ccc(NS(=O)(=O)c4ccc([N+](=O)[O-])cc4[N+](=O)[O-])cc3Oc3cc(NS(=O)(=O)c4ccc([N+](=O)[O-])cc4[N+](=O)[O-])ccc32)c2ccccc21 [compound 2]
increase in fluorescence intensity around 520 nm after addition of cysteine (factor) ([3]; 10 mM cysteine, 50 mM Tris-HCl pH 7.4, 37° C., 30 minutes, excitation 490 nm): approximately 3500
fluorescence of the probe without cysteine ([3]; no cysteine, 50 mM Tris-HCl pH 7.4, excitation 490 nm): no significant fluorescence was observed
increase in fluorescence intensity at 522 nm ([1]; 1 mM 2-mercaptoethanol (ME)): 11 times
activity on other biological substances (selectivity) ([1]; glycine, ascorbic acid, or hydrogen peroxide): did not exhibit activity
stability: fluorescence signal after heating [4]: no increase in the fluorescence signal was detected
fluorescence signal of cells pre-treated with thiol-blocking agent (HeLa cells; HeLa cells pre-treated with 1 mM N-methylmaleimide 60 minutes, then 25 μM probe 15 minutes): no fluorescence signal was observed
permeation into cells (HeLa cells; HeLa cells, 25 μM probe): permeates into the cell membrane
fluorescence signal of cells (HeLa cells; HeLa cells, 25 μM probe, 15 minutes, 37° C.): significant fluorescence signal

Nc1ccc2nc3c4ccccc4/c(=N\S(=O)(=O)c4ccc([N+](=O)[O-])cc4[N+](=O)[O-])cc-3oc2c1 [compound 4]
fluorescence intensity at 620 nm after reaction with GSH ([5]; 10 mM GSH, 37° C., 30 minutes, 50 mM Tris-HCl pH 7.4, excitation 540 nm): an increase in the fluorescence intensity was observed
fluorescence of the probe as a single body (without GSH) ([5]; excitation 540 nm, 50 mM Tris-HCl pH 7.4): generated no fluorescence
fluorescence intensity of HL60 cells (−N-MMI) versus HL60 cells (+N-MMI) (HL60): higher
